Experimental data reported in patent publication US10597390B2, “Indoles for use in influenza virus infection” (Janssen Sciences Ireland UC, priority 2014, dated 2020).

What was measured:
[1] = in vitro; details: dog, TOX MDCK CC50
[2] = tested on: influenza virus A/Taiwan/1/86 (H1N1); assay: organism not typed; format: cell-based; details: MDCK, 72 h, CPE in MDCK cells, three days post-virus exposure, ATPlite

## Cn1ccnc1C(=O)N[C@H]1CCC[C@@H](Nc2nc(-c3c[nH]c4c(F)cc(F)cc34)ncc2F)C1 [Compound 83]
[1]
  CC50 at 3 days: 9600 nM
other
  melting point: 166.6 °C
[2]
  IC50: 2 nM

## Cc1cc(F)c2[nH]cc(-c3ncc(F)c(NC(CC(=O)O)C(C)(C)C)n3)c2c1 (racemic) [Compound 167]
[1]
  CC50 at 3 days: 3500 nM
other
  melting point: 182 °C
[2]
  IC50: 30 nM

## Cn1nncc1C(=O)N[C@@H]1CCC[C@H](Nc2nc(-c3c[nH]c4c(F)cc(Cl)cc34)ncc2F)C1 [Compound 49]
[1]
  CC50 at 3 days: > 25000 nM
other
  melting point: 249.6 °C
[2]
  IC50: 9 nM

## Cc1cc(F)c2[nH]cc(-c3ncc(F)c(N[C@H]4CCC[C@@H](NC(=O)c5ncsc5C)C4)n3)c2c1 (racemic) [Compound 193]
[1]
  CC50 at 3 days: 3600 nM
other
  melting point: 234 °C
[2]
  IC50: 5 nM

## Cc1scnc1C(=O)N[C@@H]1CCC[C@H](Nc2nc(-c3c[nH]c4c(F)cc(Cl)cc34)ncc2F)C1 [Compound 47]
[1]
  CC50 at 3 days: 7400 nM
other
  melting point: > 300 °C
[2]
  IC50: 3 nM

## Cc1cccnc1C(=O)N[C@@H]1CCC[C@H](Nc2nc(-c3c[nH]c4c(F)cc(Cl)cc34)ncc2F)C1 [Compound 32]
[1]
  CC50 at 3 days: > 22000 nM
other
  melting point: 226.5 °C
[2]
  IC50: 9 nM

## O=C(N[C@@H]1CCC[C@H](Nc2nc(-c3c[nH]c4c(F)cc(F)cc34)ncc2F)C1)c1ncccc1O [Compound 102]
[1]
  CC50 at 3 days: 10100 nM
other
  melting point: 176 °C
[2]
  IC50: 10 nM

## Cc1cc(F)c2[nH]cc(-c3ncc(F)c(N[C@@H]4CCC[C@@H](NC(=O)c5ncoc5C)C4)n3)c2c1 (racemic) [Compound 194]
[1]
  CC50 at 3 days: 11200 nM
other
  melting point: 140 °C
[2]
  IC50: 17 nM

## Cc1cc(F)c2[nH]cc(-c3ncc(F)c(NC(CC(=O)O)C(C)(C)c4nccs4)n3)c2c1 (stereo not drawn) [Compound 233]
[1]
  CC50 at 3 days: 17300 nM
other
  melting point: 237.2 °C
[2]
  IC50: 15 nM

## O=C(N[C@@H]1CCC[C@H](Nc2nc(-c3c[nH]c4c(F)cc(Cl)cc34)ncc2F)C1)c1ncc[nH]1 [Compound 58]
[1]
  CC50 at 3 days: 3500 nM
other
  melting point: > 300 °C
[2]
  IC50: 1 nM

## O=C(O)c1n[nH]nc1C(=O)N[C@@H]1CCC[C@H](Nc2nc(-c3c[nH]c4c(F)cc(F)cc34)ncc2F)C1 [Compound 147]
[1]
  CC50 at 3 days: > 25000 nM
other
  melting point: > 300 °C
[2]
  IC50: 47 nM

## O=C(N[C@@H]1CCC[C@H](Nc2nc(-c3c[nH]c4c(F)cc(F)cc34)ncc2F)C1)c1cnccn1 [Compound 107]
[1]
  CC50 at 3 days: > 25000 nM
other
  melting point: 269 °C
[2]
  IC50: 45 nM

## CC(=O)NCc1ccc(N[C@H]2CCC[C@@H](NC(=O)N3CCCC3)C2)nc1-c1c[nH]c2c(F)cc(F)cc12 (racemic) [Compound 260, N-((cis)-3-((5-(acetamidomethyl)-6-(5,7-difluoro-1H-indol-3-yl)pyridin-2-yl)amino)-cyclohexyl)pyrrolidine-1-carboxamide]
[1]
  CC50 at 3 days: > 25000 nM
other
  melting point: 235.8 °C
[2]
  IC50: 610 nM

## Nc1n[nH]c(C(=O)N[C@@H]2CCC[C@H](Nc3nc(-c4c[nH]c5c(F)cc(Cl)cc45)ncc3F)C2)n1 [Compound 54]
[1]
  CC50 at 3 days: 10400 nM
other
  melting point: 293.5 °C
[2]
  IC50: 4 nM

## Cc1cc(F)c2[nH]cc(-c3ncc(F)c(NC(CC(=O)O)C(C)(C)c4ccn(C)n4)n3)c2c1 (stereo not drawn) [Compound 234]
[1]
  CC50 at 3 days: > 25000 nM
other
  melting point: 208.5 °C
[2]
  IC50: 460 nM

## COc1ccnc(C(=O)N[C@@H]2CCC[C@H](Nc3nc(-c4c[nH]c5c(F)cc(F)cc45)ncc3F)C2)c1 [Compound 105]
[1]
  CC50 at 3 days: 5600 nM
other
  melting point: 233.8 °C
[2]
  IC50: 2 nM

## Nc1cccc(C(=O)N[C@@H]2CCC[C@H](Nc3nc(-c4c[nH]c5c(F)cc(Cl)cc45)ncc3F)C2)n1 [Compound 38]
[1]
  CC50 at 3 days: 2700 nM
other
  melting point: 268.4 °C
[2]
  IC50: 3 nM

## O=C(N[C@@H]1CCC[C@H](Nc2nc(-c3c[nH]c4c(F)cc(Cl)cc34)ncc2F)C1)c1cccc(O)n1 [Compound 35]
[1]
  CC50 at 3 days: > 19400 nM
other
  melting point: 253.4 °C
[2]
  IC50: 3 nM

## Cc1ncn(C)c1C(=O)N[C@@H]1CCC[C@H](Nc2nc(-c3c[nH]c4c(F)cc(F)cc34)ncc2F)C1 [Compound 113]
[1]
  CC50 at 3 days: > 25000 nM
other
  melting point: > 300 °C
[2]
  IC50: 39 nM

## COc1cccc(C(=O)N[C@@H]2CCC[C@H](Nc3nc(-c4c[nH]c5c(F)cc(Cl)cc45)ncc3F)C2)n1 [Compound 31]
[1]
  CC50 at 3 days: 19900 nM
other
  melting point: 256.7 °C
[2]
  IC50: 47 nM

## O=C(N[C@@H]1CCC[C@H](Nc2nc(-c3c[nH]c4c(F)cc(Cl)cc34)ncc2F)C1)c1nnn[nH]1 [Compound 81]
[1]
  CC50 at 3 days: > 25000 nM
other
  melting point: 275.1 °C
[2]
  IC50: 39 nM

## O=C(N[C@@H]1CCC[C@H](Nc2nc(-c3c[nH]c4c(F)cc(Cl)cc34)ncc2F)C1)c1ncccc1O [Compound 34]
[1]
  CC50 at 3 days: 8700 nM
other
  melting point: 242.2 °C
[2]
  IC50: 8 nM

## Nc1n[nH]cc1C(=O)N[C@@H]1CCC[C@H](Nc2nc(-c3c[nH]c4c(F)cc(F)cc34)ncc2F)C1 [Compound 146]
[1]
  CC50 at 3 days: 10700 nM
other
  melting point: 169.7 °C
[2]
  IC50: 1 nM

## Cc1cc(C(=O)N[C@@H]2CCC[C@H](Nc3nc(-c4c[nH]c5c(F)cc(F)cc45)ncc3F)C2)n(C)n1 [Compound 116]
[1]
  CC50 at 3 days: 5800 nM
other
  melting point: 279 °C
[2]
  IC50: 12 nM

## N#Cc1cc(F)c(N[C@@H]2CCC[C@H](NC(=O)[C@@H](O)c3ccccc3)C2)nc1-c1c[nH]c2c(F)cc(F)cc12 [Compound 214]
[1]
  CC50 at 3 days: 2900 nM
other
  melting point: 255 °C
[2]
  IC50: 670 nM

## O=C(N[C@@H]1CCC[C@H](Nc2nc(-c3c[nH]c4c(F)cc(F)cc34)ncc2F)C1)[C@H]1CCCN1 [Compound 148]
[1]
  CC50 at 3 days: 10300 nM
other
  melting point: 220.8 °C
[2]
  IC50: 600 nM

## Cc1cc(F)c2[nH]cc(-c3nc(N[C@@H]4CCC[C@@H](NC(=O)c5ncoc5C)C4)c(F)cc3C#N)c2c1 (racemic) [Compound 192]
[1]
  CC50 at 3 days: > 25000 nM
other
  melting point: > 250 °C
[2]
  IC50: 11 nM

## CC(C)(C)[C@H](CC(=O)O)Nc1nc(-c2c[nH]c3c(F)cc(F)cc23)c(C#N)cc1F [Compound 218]
[1]
  CC50 at 3 days: 240 nM
other
  melting point: > 280 °C
[2]
  IC50: 3 nM

## Cc1cc(C(=O)N[C@@H]2CCC[C@H](Nc3nc(-c4c[nH]c5c(F)cc(F)cc45)ncc3F)C2)n[nH]1 [Compound 112]
[1]
  CC50 at 3 days: 18000 nM
other
  melting point: 283 °C
[2]
  IC50: 3 nM

## Cc1ocnc1C(=O)N[C@@H]1CCC[C@H](Nc2nc(-c3c[nH]c4c(F)cc(F)cc34)ncc2F)C1 [Compound 132]
[1]
  CC50 at 3 days: 11400 nM
other
  melting point: 266.7 °C
[2]
  IC50: 2 nM

## Cc1cc(C(=O)N[C@@H]2CCC[C@H](Nc3nc(-c4c[nH]c5c(F)cc(Cl)cc45)ncc3F)C2)on1 (racemic) [Compound 29]
[1]
  CC50 at 3 days: 3400 nM
other
  melting point: 246.7 °C
[2]
  IC50: 17 nM

## O=C(N[C@@H]1CCC[C@H](Nc2nc(-c3c[nH]c4c(F)cc(F)cc34)ncc2F)C1)c1ncn[nH]1 [Compound 114]
[1]
  CC50 at 3 days: > 25000 nM
other
  melting point: 289.8 °C
[2]
  IC50: 430 nM

## Cc1cnc(C(=O)N[C@@H]2CCC[C@H](Nc3nc(-c4c[nH]c5c(F)cc(F)cc45)ncc3F)C2)n1C [Compound 144]
[1]
  CC50 at 3 days: 7200 nM
other
  melting point: 204.9 °C
[2]
  IC50: 4 nM

## CC1(C(CC(=O)O)Nc2nc(-c3c[nH]c4c(F)cc(F)cc34)c(C#N)cc2F)CCOCC1 (stereo not drawn) [Compound 255, 3-((5-cyano-6-(5,7-difluoro-1H-indol-3-yl)-3-fluoropyridin-2-yl)amino)-3-(4-methyltetrahydro-2H-pyran-4-yl)propanoic Acid]
[1]
  CC50 at 3 days: 5300 nM
other
  melting point: 151.1 °C
[2]
  IC50: 170 nM

## Nc1cc(C(=O)N[C@@H]2CCC[C@H](Nc3nc(-c4c[nH]c5c(F)cc(Cl)cc45)ncc3F)C2)n[nH]1 [Compound 59]
[1]
  CC50 at 3 days: 7800 nM
other
  melting point: 245.2 °C
[2]
  IC50: 2 nM

## O=C(N[C@@H]1CCC[C@H](Nc2nc(-c3c[nH]c4c(F)cc(F)cc34)ncc2F)C1)c1csc(C(=O)O)n1 [Compound 155]
[1]
  CC50 at 3 days: > 22800 nM
other
  melting point: 260.8 °C
[2]
  IC50: 3 nM

## Cn1cc(C(=O)N[C@@H]2CCC[C@H](Nc3nc(-c4c[nH]c5c(F)cc(Cl)cc45)ncc3F)C2)cn1 [Compound 52]
[1]
  CC50 at 3 days: 4400 nM
other
  melting point: 286.8 °C
[2]
  IC50: 2 nM

## Cn1nc(C(=O)N[C@@H]2CCC[C@H](Nc3nc(-c4c[nH]c5c(F)cc(Cl)cc45)ncc3F)C2)cc1N [Compound 80]
[1]
  CC50 at 3 days: 3900 nM
other
  melting point: 174.8 °C
[2]
  IC50: 4 nM

## O=C(N[C@@H]1CCC[C@H](Nc2nc(-c3c[nH]c4c(F)cc(F)cc34)ncc2F)C1)c1cncnc1 [Compound 138]
[1]
  CC50 at 3 days: > 25000 nM
other
  melting point: > 300 °C
[2]
  IC50: 39 nM

## Cc1cc(C(=O)N[C@@H]2CCC[C@H](Nc3nc(-c4c[nH]c5c(F)cc(Cl)cc45)ncc3F)C2)n(C)n1 [Compound 41]
[1]
  CC50 at 3 days: 6000 nM
other
  melting point: 281.2 °C
[2]
  IC50: 10 nM

## Nc1nc(C(=O)N[C@@H]2CCC[C@H](Nc3nc(-c4c[nH]c5c(F)cc(Cl)cc45)ncc3F)C2)cs1 [Compound 76]
[1]
  CC50 at 3 days: 2500 nM
other
  melting point: 184.8 °C
[2]
  IC50: 0.6 nM

## Cc1ccnc(C(=O)N[C@@H]2CCC[C@H](Nc3nc(-c4c[nH]c5c(F)cc(F)cc45)ncc3F)C2)c1 [Compound 110]
[1]
  CC50 at 3 days: 9600 nM
other
  melting point: 255 °C
[2]
  IC50: 3 nM

## Cn1cc(C(=O)N[C@@H]2CCC[C@H](Nc3nc(-c4c[nH]c5c(F)cc(F)cc45)ncc3F)C2)cn1 [Compound 120]
[1]
  CC50 at 3 days: > 25000 nM
other
  melting point: > 300 °C
[2]
  IC50: 3 nM

## CC1([C@@H](CC(=O)O)Nc2nc(-c3c[nH]c4c(F)cc(F)cc34)c(C#N)cc2F)CCCC1 [Compound 245]
[1]
  CC50 at 3 days: 700 nM
other
  melting point: 289.6 °C
[2]
  IC50: 3 nM
